This note sets out measurements from ChEMBL document CHEMBL5385908, “Screening Ultra-Large Encoded Compound Libraries Leads to Novel Protein-Ligand Interactions and High Selectivity” (J Med Chem, 2024).

In assay [1] the target is T1, Proteinase-activated receptor 2 (Homo sapiens, UniProt P55085).
T1 sequence (P55085 whole entry): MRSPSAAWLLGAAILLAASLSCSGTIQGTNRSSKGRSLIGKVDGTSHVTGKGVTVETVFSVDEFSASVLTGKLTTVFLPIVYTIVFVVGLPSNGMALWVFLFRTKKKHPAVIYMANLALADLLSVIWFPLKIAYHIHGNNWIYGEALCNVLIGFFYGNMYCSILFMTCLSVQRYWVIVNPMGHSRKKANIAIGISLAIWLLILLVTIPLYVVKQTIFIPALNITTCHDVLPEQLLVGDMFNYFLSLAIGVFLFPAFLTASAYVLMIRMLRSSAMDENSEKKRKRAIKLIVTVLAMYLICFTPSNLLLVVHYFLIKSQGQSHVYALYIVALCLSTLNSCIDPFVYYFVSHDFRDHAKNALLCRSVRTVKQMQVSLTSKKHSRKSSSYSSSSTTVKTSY
Description: Antagonist activity at PAR2 (unknown origin).

Assay [2] has as its target T2, ATPase family AAA domain-containing protein 2 (Homo sapiens, UniProt Q6PL18).
T2 sequence (Q6PL18 whole entry): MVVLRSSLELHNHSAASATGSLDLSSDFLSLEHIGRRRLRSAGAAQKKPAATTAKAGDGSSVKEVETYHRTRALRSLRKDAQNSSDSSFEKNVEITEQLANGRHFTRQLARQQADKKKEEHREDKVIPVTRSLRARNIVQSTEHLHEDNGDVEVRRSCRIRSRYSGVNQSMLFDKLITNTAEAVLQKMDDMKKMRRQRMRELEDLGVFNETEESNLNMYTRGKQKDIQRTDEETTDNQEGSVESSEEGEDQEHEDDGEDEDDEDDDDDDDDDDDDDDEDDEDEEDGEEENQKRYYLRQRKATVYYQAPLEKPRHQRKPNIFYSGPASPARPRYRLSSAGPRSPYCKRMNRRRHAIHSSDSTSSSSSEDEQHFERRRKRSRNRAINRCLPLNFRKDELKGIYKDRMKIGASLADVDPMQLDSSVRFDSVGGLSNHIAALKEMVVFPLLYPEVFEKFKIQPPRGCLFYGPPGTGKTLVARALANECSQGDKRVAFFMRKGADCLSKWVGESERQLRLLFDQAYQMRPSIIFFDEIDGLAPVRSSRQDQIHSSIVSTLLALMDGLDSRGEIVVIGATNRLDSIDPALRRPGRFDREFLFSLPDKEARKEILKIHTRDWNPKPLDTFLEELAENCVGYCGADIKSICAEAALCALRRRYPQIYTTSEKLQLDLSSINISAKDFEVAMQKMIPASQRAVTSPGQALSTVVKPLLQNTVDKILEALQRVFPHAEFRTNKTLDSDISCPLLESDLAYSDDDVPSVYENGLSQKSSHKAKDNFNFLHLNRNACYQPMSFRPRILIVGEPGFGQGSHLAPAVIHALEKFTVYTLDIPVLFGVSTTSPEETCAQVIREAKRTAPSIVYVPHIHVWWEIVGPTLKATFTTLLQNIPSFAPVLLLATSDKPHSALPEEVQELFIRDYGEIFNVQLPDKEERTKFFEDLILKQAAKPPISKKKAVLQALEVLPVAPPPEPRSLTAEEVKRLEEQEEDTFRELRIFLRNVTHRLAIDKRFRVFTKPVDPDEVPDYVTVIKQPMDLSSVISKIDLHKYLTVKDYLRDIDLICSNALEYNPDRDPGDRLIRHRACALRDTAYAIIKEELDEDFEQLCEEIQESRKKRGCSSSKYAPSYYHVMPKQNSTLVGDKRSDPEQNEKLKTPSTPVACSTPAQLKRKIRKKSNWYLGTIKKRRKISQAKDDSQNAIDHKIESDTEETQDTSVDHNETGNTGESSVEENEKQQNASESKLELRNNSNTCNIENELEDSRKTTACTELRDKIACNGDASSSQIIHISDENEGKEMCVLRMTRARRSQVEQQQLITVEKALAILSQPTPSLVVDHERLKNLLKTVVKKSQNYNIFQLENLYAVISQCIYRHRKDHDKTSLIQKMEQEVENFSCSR
Description: Inhibition of N-terminal Hexahistidine-GST-tagged human ATAD2 bromodomain expressed in Escherichia coli BL21 (DE3) Rosetta cells incubated for 1 hr by FRET analysis.

In assay [3] the target is T3, Tyrosine-protein kinase Mer (Homo sapiens, UniProt Q12866).
T3 sequence (Q12866 whole entry): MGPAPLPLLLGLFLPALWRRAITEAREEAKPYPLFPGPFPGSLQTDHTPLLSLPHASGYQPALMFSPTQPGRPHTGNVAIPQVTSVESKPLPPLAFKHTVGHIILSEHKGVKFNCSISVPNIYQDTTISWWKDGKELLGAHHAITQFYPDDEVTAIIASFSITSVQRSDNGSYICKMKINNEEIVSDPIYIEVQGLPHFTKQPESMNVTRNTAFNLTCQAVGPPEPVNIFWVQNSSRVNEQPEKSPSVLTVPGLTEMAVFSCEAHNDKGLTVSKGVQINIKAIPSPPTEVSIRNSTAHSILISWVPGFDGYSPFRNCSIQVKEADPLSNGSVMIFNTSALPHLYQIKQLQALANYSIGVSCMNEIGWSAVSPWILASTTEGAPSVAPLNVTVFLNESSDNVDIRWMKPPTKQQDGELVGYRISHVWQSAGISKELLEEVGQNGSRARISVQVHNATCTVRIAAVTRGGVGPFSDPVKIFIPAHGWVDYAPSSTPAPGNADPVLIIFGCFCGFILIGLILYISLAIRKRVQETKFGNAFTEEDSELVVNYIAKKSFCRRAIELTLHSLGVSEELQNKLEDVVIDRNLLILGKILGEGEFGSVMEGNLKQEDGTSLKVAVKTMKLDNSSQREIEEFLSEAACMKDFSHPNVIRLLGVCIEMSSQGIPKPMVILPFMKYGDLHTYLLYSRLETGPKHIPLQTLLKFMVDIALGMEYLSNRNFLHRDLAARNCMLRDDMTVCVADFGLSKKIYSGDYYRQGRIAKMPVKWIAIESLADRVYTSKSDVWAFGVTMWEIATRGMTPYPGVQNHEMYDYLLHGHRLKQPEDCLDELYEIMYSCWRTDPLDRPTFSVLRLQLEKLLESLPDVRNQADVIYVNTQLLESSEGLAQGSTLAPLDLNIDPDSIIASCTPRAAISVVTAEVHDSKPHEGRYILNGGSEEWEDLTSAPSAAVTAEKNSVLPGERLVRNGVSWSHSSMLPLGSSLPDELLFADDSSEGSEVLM
The assay can be described thus: Inhibition of N-terminal His6-tagged human MerTk.

Assay [4] addresses T4, Tyrosine-protein kinase receptor UFO (Homo sapiens, UniProt P30530).
T4 sequence (P30530 whole entry): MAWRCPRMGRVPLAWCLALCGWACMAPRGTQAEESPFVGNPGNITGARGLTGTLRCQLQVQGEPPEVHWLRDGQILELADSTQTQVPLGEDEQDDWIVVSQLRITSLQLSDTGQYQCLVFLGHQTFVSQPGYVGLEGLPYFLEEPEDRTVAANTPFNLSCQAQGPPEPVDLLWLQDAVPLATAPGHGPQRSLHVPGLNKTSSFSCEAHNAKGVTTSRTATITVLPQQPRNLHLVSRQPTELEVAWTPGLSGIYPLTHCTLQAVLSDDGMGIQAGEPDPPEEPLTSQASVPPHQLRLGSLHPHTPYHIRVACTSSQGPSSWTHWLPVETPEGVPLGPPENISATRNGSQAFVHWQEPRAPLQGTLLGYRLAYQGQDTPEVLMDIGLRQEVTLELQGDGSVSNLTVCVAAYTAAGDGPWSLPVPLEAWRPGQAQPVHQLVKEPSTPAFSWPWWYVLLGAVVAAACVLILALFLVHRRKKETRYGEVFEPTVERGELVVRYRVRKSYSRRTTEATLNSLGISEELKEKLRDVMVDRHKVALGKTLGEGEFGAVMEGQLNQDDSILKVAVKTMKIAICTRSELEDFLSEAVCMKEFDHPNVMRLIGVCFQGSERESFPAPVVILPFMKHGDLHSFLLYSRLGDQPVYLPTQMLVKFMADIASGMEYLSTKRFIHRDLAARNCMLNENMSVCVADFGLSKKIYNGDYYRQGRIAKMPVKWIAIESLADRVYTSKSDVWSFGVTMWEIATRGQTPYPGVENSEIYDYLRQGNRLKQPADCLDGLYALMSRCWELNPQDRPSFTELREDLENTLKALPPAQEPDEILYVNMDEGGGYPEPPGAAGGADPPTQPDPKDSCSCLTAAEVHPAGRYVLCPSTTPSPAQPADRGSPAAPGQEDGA
The assay can be described thus: Inhibition of AXL (unknown origin) by FRET assay.

Assay [5] has as its target T5, Receptor-type tyrosine-protein kinase FLT3 (Homo sapiens, UniProt P36888).
T5 sequence (P36888 whole entry): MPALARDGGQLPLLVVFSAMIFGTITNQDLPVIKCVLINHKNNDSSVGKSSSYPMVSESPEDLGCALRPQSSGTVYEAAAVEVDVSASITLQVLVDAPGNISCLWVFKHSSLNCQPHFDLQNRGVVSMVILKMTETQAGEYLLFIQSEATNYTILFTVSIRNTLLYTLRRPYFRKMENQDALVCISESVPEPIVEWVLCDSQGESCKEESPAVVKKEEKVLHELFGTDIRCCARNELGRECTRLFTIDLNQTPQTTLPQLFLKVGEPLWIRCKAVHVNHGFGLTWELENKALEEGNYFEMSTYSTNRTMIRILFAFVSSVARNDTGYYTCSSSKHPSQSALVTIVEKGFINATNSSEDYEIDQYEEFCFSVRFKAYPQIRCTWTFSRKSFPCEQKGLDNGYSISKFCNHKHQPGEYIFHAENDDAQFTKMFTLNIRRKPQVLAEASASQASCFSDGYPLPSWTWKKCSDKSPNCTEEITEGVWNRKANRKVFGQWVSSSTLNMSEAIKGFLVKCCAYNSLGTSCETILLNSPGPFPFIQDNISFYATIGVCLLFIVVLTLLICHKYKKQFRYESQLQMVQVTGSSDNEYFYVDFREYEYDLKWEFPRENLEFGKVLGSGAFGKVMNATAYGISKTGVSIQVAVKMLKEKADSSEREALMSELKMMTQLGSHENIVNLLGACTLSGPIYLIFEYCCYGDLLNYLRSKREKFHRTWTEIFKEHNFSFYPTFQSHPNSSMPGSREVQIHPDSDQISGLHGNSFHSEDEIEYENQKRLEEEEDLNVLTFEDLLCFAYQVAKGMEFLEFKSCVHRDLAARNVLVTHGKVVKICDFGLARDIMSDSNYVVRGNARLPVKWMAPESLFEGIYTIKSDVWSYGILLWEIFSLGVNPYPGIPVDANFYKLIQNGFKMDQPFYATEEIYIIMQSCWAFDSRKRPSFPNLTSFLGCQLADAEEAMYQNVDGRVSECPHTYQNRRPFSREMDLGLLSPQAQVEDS
Description: Inhibition of wild type FLT3 (unknown origin).

Assay [6] addresses T6, Protein phosphatase 1D (Homo sapiens, UniProt O15297).
T6 sequence (O15297 whole entry): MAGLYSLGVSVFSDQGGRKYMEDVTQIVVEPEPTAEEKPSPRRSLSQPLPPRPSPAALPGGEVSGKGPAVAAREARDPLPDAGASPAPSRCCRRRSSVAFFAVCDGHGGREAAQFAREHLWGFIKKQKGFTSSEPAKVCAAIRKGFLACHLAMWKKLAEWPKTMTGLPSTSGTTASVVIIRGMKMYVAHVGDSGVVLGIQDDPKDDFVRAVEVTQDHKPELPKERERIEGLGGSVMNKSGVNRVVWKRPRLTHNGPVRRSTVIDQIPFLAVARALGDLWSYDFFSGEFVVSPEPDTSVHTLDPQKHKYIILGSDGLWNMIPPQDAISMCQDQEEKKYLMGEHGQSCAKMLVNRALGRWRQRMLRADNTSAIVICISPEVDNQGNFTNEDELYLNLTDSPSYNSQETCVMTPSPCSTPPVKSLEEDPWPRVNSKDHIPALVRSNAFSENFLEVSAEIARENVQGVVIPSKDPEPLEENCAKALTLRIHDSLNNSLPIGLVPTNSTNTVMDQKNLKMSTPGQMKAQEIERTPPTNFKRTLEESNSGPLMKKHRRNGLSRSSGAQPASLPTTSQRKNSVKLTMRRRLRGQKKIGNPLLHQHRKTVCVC
The assay can be described thus: Inhibition of N-terminal FLAG-His8-tagged human Wip1 (2 to 420 residues) expressed in bac-to-bac baculovirus expression system infected Sf9 cells.

Assay [7] concerns the target T7, Protein-arginine deiminase type-4 (Homo sapiens, UniProt Q9UM07). Description: Inhibition of N-terminal GST-tagged PAD4 (unknown origin) expressed in Escherichia coli incubated for 1 hr by spectrophotometric method.
Assay [8] has as its target T7, Protein-arginine deiminase type-4. The assay can be described thus: Inhibition of N-terminal GST-tagged PAD4 (unknown origin) expressed in Escherichia coli BL21 (DE3) measured after 1 hr by colorimetric assay.

T7 sequence (Q9UM07 whole entry): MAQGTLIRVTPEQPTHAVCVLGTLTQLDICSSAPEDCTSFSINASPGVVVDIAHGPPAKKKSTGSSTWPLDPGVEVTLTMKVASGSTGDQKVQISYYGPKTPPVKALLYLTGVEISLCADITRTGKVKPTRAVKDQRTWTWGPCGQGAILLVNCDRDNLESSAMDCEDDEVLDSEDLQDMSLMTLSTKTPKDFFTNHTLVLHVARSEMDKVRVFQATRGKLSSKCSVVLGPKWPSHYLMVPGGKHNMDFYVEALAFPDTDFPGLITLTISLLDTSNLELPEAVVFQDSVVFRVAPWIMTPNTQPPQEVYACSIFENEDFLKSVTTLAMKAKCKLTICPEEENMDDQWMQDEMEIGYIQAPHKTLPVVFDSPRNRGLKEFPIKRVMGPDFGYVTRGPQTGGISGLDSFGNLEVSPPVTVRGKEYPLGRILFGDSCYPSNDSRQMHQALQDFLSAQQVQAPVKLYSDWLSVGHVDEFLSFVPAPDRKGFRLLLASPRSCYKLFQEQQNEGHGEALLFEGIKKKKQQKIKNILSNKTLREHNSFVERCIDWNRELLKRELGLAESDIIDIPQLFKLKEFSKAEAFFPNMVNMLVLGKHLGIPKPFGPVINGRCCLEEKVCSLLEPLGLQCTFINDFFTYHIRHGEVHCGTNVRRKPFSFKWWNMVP

For the molecule `C[C@@H](C1CCCCC1)n1c(-c2cc3c(cc2Br)OCO3)nc2cc(C(=O)Nc3ccc(C#N)cc3)ccc21`, half-maximal inhibition in assay [1] (IC50) required 23 nM. This lies in the double-digit nanomolar range.

In the case of `COc1cc(Cl)c(C(=O)N[C@@H](CN[C@H]2CC[C@@H](N)CC2)Cc2ccc(C#N)cc2)cc1-c1ccc(CN[C@H](C)c2ccc(C)cc2)o1`, in assay [2], the IC50 (usually the point on the concentration scale where inhibition reaches its midpoint) turned out to be 22 nM. In other words, the double-digit nanomolar range.

Take `CNC(=O)[C@@H](Cc1ccc([N+](=O)[O-])cc1)NC(=O)c1cc(-c2ccc(CN[C@H](C)c3ccc(C)cc3)o2)ccc1Cl`: the half-inhibitory concentration (IC50) in assay [2] came out at 22 nM.

In assay [1], `C[C@@H](c1ccccc1)n1c(-c2cc3c(cc2Br)OCO3)nc2cc(C(=O)Nc3ccccc3)ccc21` yielded an IC50 of 90 nM.

In the case of `CNC(=O)C[C@@H](NC(=O)[C@@H](Cc1ccccc1)NC(=O)c1c(C)noc1-c1snnc1C)c1ccc(C(F)(F)F)cc1`, the 50% inhibitory concentration (IC50) in assay [3] is 5 nM; in assay [4], 16 nM; in assay [5], more than 100000 nM.

In assay [6], `COCCNC(=O)[C@H](CC1CCCCC1)NC(=O)c1ccc(CNc2cccc(Cl)c2)s1` returned a concentration for half-maximal inhibition (IC50) of 13 nM. That is a double-digit nanomolar value.

Consider `Cn1c(-c2cc3cc(C(=O)N4CCCC(N)C4)ccc3n2N)cc2ccccc21` (centres undefined), for which, in assay [7], the concentration for half-maximal inhibition (IC50) was 3200 nM.

Consider `COc1cc(C(=O)N2CCC[C@@H](N)C2)cc2cc(-c3cc4cccnc4n3C)n(N)c12`, for which the IC50 in assay [7] and in assay [8] was 200 nM each time.

For the molecule `CN(Cc1ccc2nccn2c1)c1ccc(-c2ccc(-c3ccccc3Cl)cc2)o1`, the figures for the IC50 in assay [3], in assay [4] and in assay [5] were 5 nM, 400 nM and 15800 nM, respectively.
